Data from PubChem BioAssay (NCI).
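48-hour exposure; five concentrations; linearly interpolated endpoints. GI50: concentration for 50% inhibition of growth. TGI marks complete inhibition of growth.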

Assays:
Assay in all cases: growth of human tumour cells (NCI), 48 h
[1] = system: HS 578T breast
[2] = system: SF-268 CNS
[3] = system: K-562 leukemia
[4] = system: SN12C renal
[5] = system: OVCAR-8 ovarian
[6] = system: NCI-H226 lung
[7] = system: NCI/ADR-RES ovarian
[8] = system: M14 melanoma
[9] = system: HOP-62 NSCLC
[10] = system: RXF 393 renal
[11] = system: OVCAR-5 ovarian
[12] = system: SF-295 CNS
[13] = system: SF-539 CNS
[14] = system: MDA-MB-231 breast
[15] = system: UACC-257 melanoma
[16] = system: DU-145 prostate
[17] = system: HCC-2998 colon
[18] = system: COLO 205 colon
[19] = system: HOP-92 NSCLC
[20] = system: SK-MEL-5 melanoma
[21] = system: EKVX NSCLC
[22] = system: IGROV1 ovarian
[23] = system: UO-31 renal
[24] = system: LOX IMVI melanoma
[25] = system: SW-620 colon
[26] = system: NCI-H522 lung
[27] = system: UACC-62 melanoma
[28] = system: CCRF-CEM leukemia
[29] = system: T-47D breast
[30] = system: HT29 colon
[31] = system: NCI-H460 lung
[32] = system: TK-10 renal
[33] = system: RPMI-8226 leukemia
[34] = system: MALME-3M melanoma
[35] = system: SK-MEL-28 melanoma
[36] = system: SK-MEL-2 melanoma
[37] = system: MOLT-4 leukemia
[38] = system: KM12 colon
[39] = system: HCT-116 colon
[40] = system: OVCAR-4 ovarian
[41] = system: A549 NSCLC
[42] = system: U251 CNS
[43] = system: A498 renal
[44] = system: SK-OV-3 ovarian
[45] = system: HCT-15 colon
[46] = system: PC-3 prostate
[47] = system: 786-0 renal
[48] = system: MCF7 breast
[49] = system: ACHN renal
[50] = system: BT-549 breast
[51] = system: HL-60(TB) leukemia
[52] = system: SR leukemia
[53] = system: SNB-75 CNS
[54] = system: CAKI-1 renal
[55] = system: SNB-19 CNS
[56] = system: NCI-H23 lung
[57] = system: MDA-MB-435

Cc1ccccc1N1CCN(C2=C(Cl)C(=O)c3ncccc3C2=O)CC1
GI50 [1]: 4.94 µM
TGI [1]: 85.3 µM
GI50 [2]: 23.7 µM
TGI [2]: > 100 µM
GI50 [3]: 1.28 µM
TGI [3]: 4.08 µM
GI50 [4]: 3.56 µM
TGI [4]: 78.9 µM
GI50 [5]: 1.91 µM
TGI [5]: 4.35 µM
GI50 [6]: 20.8 µM
TGI [6]: > 100 µM
GI50 [7]: 2.51 µM
TGI [7]: 7.18 µM
GI50 [8]: 2.2 µM
TGI [8]: 6.45 µM
GI50 [9]: 35.1 µM
TGI [9]: > 100 µM
GI50 [10]: 1.74 µM
TGI [10]: 3.17 µM
GI50 [11]: 6.89 µM
TGI [11]: 21.2 µM
GI50 [12]: 14.7 µM
TGI [12]: > 100 µM
GI50 [13]: 1.8 µM
TGI [13]: 3.32 µM
GI50 [14]: 1.71 µM
TGI [14]: 3.27 µM
GI50 [15]: 1.98 µM
TGI [15]: 4.25 µM
GI50 [16]: 3.8 µM
TGI [16]: > 100 µM
GI50 [17]: 3.33 µM
TGI [17]: 13.8 µM
GI50 [18]: 3.14 µM
TGI [18]: 10.8 µM
GI50 [19]: 1.36 µM
TGI [19]: 2.7 µM
GI50 [20]: 4.98 µM
TGI [20]: 17.7 µM
GI50 [21]: 1.68 µM
TGI [21]: 3.1 µM
GI50 [22]: 1.97 µM
TGI [22]: 4.09 µM
GI50 [23]: 1.49 µM
TGI [23]: 2.86 µM
GI50 [24]: 1.65 µM
TGI [24]: 3.21 µM
GI50 [25]: 1.48 µM
TGI [25]: 3.45 µM
GI50 [26]: 1.68 µM
TGI [26]: 3.31 µM
GI50 [27]: 3.92 µM
TGI [27]: 42.2 µM
GI50 [28]: 1.73 µM
TGI [28]: 5.19 µM
GI50 [29]: 1.9 µM
TGI [29]: 4.35 µM
GI50 [30]: 5.33 µM
TGI [30]: > 100 µM
GI50 [31]: 6.68 µM
TGI [31]: 46.5 µM
GI50 [32]: 4.76 µM
TGI [32]: > 100 µM
GI50 [33]: 2 µM
TGI [33]: 5.22 µM
GI50 [34]: 2.03 µM
TGI [34]: 4.64 µM
GI50 [35]: 2.19 µM
TGI [35]: 5.06 µM
GI50 [36]: 2.75 µM
TGI [36]: 14.8 µM
GI50 [37]: 1.78 µM
TGI [37]: 4.95 µM
GI50 [38]: 48.1 µM
TGI [38]: > 100 µM
GI50 [39]: 1.56 µM
TGI [39]: 2.89 µM
GI50 [40]: 1.75 µM
TGI [40]: 3.23 µM
GI50 [41]: 23.5 µM
TGI [41]: > 100 µM
GI50 [42]: 6 µM
TGI [42]: 25.6 µM
GI50 [43]: > 100 µM
TGI [43]: > 100 µM
GI50 [44]: 37.2 µM
TGI [44]: > 100 µM
GI50 [45]: 1.69 µM
TGI [45]: 4.52 µM
GI50 [46]: 1.63 µM
TGI [46]: 3.7 µM
GI50 [47]: 1.71 µM
TGI [47]: 3.09 µM
GI50 [48]: 1.46 µM
TGI [48]: 3.22 µM
GI50 [49]: 1.85 µM
TGI [49]: 3.89 µM
GI50 [50]: 1.96 µM
TGI [50]: 3.41 µM
GI50 [51]: 1.61 µM
TGI [51]: 4.05 µM
GI50 [52]: 1 µM
TGI [52]: 5 µM
GI50 [53]: 17.4 µM
TGI [53]: > 100 µM
GI50 [54]: 2.78 µM
TGI [54]: > 100 µM
GI50 [55]: 30.3 µM
TGI [55]: > 100 µM

C#C[C@]1(O)CC[C@H]2[C@@H]3CC=C4c5sc(Nc6ccc(OC)nc6)nc5CC[C@]4(C)[C@H]3CC[C@@]21C
GI50 [1]: 0.231 µM
TGI [1]: 1.61 µM
GI50 [2]: 2.01 µM
TGI [2]: 17.4 µM
GI50 [3]: 0.907 µM
TGI [3]: 12.8 µM
GI50 [4]: 2.22 µM
TGI [4]: 7.61 µM
GI50 [5]: 1.8 µM
TGI [5]: 5.46 µM
GI50 [6]: 2.02 µM
TGI [6]: 13.4 µM
GI50 [7]: 2.36 µM
TGI [7]: > 100 µM
GI50 [8]: 1.47 µM
TGI [8]: 3.47 µM
GI50 [9]: 1.66 µM
TGI [9]: 8.8 µM
GI50 [11]: 2.49 µM
TGI [11]: 15.1 µM
GI50 [12]: 0.302 µM
TGI [12]: 1.23 µM
GI50 [13]: 0.366 µM
TGI [13]: 2.15 µM
GI50 [14]: 1.71 µM
TGI [14]: 9.34 µM
GI50 [15]: 1.55 µM
TGI [15]: 3.18 µM
GI50 [16]: 2.01 µM
TGI [16]: 10 µM
GI50 [17]: 1.7 µM
TGI [17]: 3.81 µM
GI50 [18]: 1.78 µM
TGI [18]: 3.37 µM
GI50 [19]: 1.03 µM
TGI [19]: 2.95 µM
GI50 [20]: 1.93 µM
TGI [20]: 4.54 µM
GI50 [21]: 1.6 µM
TGI [21]: 21.3 µM
GI50 [22]: 2.04 µM
TGI [22]: 7.4 µM
GI50 [23]: 0.83 µM
TGI [23]: 2.13 µM
GI50 [24]: 1.15 µM
TGI [24]: 2.79 µM
GI50 [25]: 1.49 µM
TGI [25]: 3.4 µM
GI50 [26]: 1.43 µM
TGI [26]: 3.02 µM
GI50 [28]: 0.805 µM
TGI [28]: 6.24 µM
GI50 [29]: 1.47 µM
TGI [29]: 3.78 µM
GI50 [30]: 1.31 µM
TGI [30]: 3.24 µM
GI50 [31]: 1.92 µM
TGI [31]: 5.89 µM
GI50 [32]: 2.28 µM
TGI [32]: 4.81 µM
GI50 [33]: 0.222 µM
TGI [33]: 1.19 µM
GI50 [34]: 1.54 µM
TGI [34]: 3.21 µM
GI50 [35]: 1.5 µM
TGI [35]: 3.72 µM
GI50 [37]: 0.39 µM
TGI [37]: 2.41 µM
GI50 [38]: 2.1 µM
TGI [38]: 12.2 µM
GI50 [39]: 1.13 µM
TGI [39]: 2.49 µM
GI50 [40]: 3.51 µM
TGI [40]: > 100 µM
GI50 [41]: 2.2 µM
TGI [41]: 18 µM
GI50 [42]: 0.654 µM
TGI [42]: 2.81 µM
GI50 [43]: 0.769 µM
TGI [43]: 5.88 µM
GI50 [44]: 1.26 µM
TGI [44]: 6.16 µM
GI50 [45]: 1.07 µM
TGI [45]: 8.28 µM
GI50 [46]: 0.739 µM
TGI [46]: 4.92 µM
GI50 [47]: 0.413 µM
TGI [47]: 1.97 µM
GI50 [56]: 1.65 µM
TGI [56]: 4.47 µM
GI50 [48]: 0.789 µM
TGI [48]: 2.54 µM
GI50 [50]: 0.944 µM
TGI [50]: 2.89 µM
GI50 [51]: 0.493 µM
TGI [51]: 3.71 µM
GI50 [53]: 0.37 µM
TGI [53]: 3.9 µM
GI50 [54]: 1.28 µM
TGI [54]: 3.76 µM
GI50 [57]: 1.84 µM
TGI [57]: 4.9 µM
GI50 [55]: 1.36 µM
TGI [55]: 68.8 µM
